We go through two compounds from ChEMBL document CHEMBL4699534, “Optimizing PEG-Extended Apelin Analogues as Cardioprotective Drug Leads: Importance of the KFRR Motif and Aromatic Head Group for Improved Physiological Activity” (J Med Chem, 2020).

Non-standard residues stand in square brackets, D forms with d. Residues, ends and D or L forms follow the SMILES beside them. *: point of attachment. Phe(4-Br) = N[C@@H](Cc1ccc(Br)cc1)C(=O)O; PEG7 = NCCOCCOCCOCCOCCOCCOCCOCCC(=O)O; Fmoc = O=C(OCC1c2ccccc2-c2ccccc21)*; NMeL = CN[C@@H](CC(C)C)C(=O)O; Nle = CCCC[C@H](N)C(=O)O; Cbz = O=C(OCc1ccccc1)*; Aib = CC(C)(N)C(=O)O

Data set [1] in a line: Half life in human plasma at 400 uM by HPLC analysis. It is filed as ADME, cell-free.
The nature of data set [2]: Half life in mouse plasma at 400 uM by HPLC analysis. It counts as ADME, cell-free.
Data set [3] addresses T1, Apelin receptor (Homo sapiens, UniProt P35414).
T1 sequence (P35414 whole entry): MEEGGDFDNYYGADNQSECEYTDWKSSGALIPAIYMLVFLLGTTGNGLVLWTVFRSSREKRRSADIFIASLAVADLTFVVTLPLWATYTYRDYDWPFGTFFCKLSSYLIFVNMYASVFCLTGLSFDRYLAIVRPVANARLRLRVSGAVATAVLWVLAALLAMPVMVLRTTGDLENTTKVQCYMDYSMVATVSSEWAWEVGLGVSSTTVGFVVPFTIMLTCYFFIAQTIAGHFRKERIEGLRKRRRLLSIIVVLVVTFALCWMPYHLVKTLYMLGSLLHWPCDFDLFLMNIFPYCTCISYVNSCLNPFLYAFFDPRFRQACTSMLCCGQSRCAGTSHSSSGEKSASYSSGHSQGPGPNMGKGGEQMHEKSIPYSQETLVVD
The data set can be described thus: Activation of APJ receptor (unknown origin) expressed in Chem-5 cells assessed as stimulation of Ca2+ mobilization by Calcium 6-GF dye based fluorescence based assay. It is filed as functional, cell-based. For orientation: A change in cytosolic calcium serves as a functional read-out for many receptors and channels.

For data set [4], the target named is T2, Apelin receptor (Rattus norvegicus, UniProt Q9JHG3).
T2 sequence (Q9JHG3 whole entry): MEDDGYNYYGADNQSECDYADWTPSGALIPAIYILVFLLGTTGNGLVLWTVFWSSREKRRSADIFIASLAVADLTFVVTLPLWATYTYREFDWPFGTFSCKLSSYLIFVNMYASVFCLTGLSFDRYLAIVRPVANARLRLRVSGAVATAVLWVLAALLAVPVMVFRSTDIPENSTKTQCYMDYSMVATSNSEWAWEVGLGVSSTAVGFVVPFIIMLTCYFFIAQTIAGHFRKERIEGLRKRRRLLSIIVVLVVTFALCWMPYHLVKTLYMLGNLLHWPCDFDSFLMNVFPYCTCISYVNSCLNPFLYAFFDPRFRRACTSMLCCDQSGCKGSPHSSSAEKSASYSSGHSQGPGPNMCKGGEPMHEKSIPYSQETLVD
The data set can be described thus: Displacement of [125I]-pyr-1-apelin-13 from EGFP-tagged wild-type rat apelin receptor expressed in CHO cell membranes by gamma counting method. The arrangement: species or system Cell membrane. (In general: Displacement assays read how much labelled ligand stays bound in the presence of the test substance.)

The subject of data set [5] is Mus musculus. The data set can be described thus: Cardioprotective activity in C57BL/6 mouse assessed as reduction in mean arterial blood pressure at 1.4 uM/kg, iv measured after 15 mins relative to control. The settings on record: 0.25 h. It counts as functional.
Data set [6] can be described thus: Protein binding in 55% human plasma at 100 uM incubated for 3 hrs by LC/MS detection based equilibrium dialysis. It is filed as ADME, cell-free. The settings on record: 55% plasma, read-out: PPB (converted). (In general: Equilibrium dialysis compares concentrations on both sides of a semipermeable membrane.)
Data set [7] is described as follows: Protein binding in 55% mouse plasma at 100 uM incubated for 3 hrs by LC/MS detection based equilibrium dialysis. It is filed as ADME, cell-free. The settings on record: 55% plasma, read-out: PPB (converted).
A short description of data set [8]: Lipophilicity, log D of the compound in pH 7.4 PBS by LC/MS detection based shake flask assay. It counts as physicochemical.
Data set [9] relates to Heart. The data set can be described thus: Cardioprotective activity in mouse Langendorff heart perfusion and ischemia-reperfusion injury model assessed as left ventricle developed pressure at 1 uM dosed at start of reperfusion for 10 mins. It counts as functional.
Data set [10] concerns Heart. Kind of data set: Cardioprotective activity in mouse Langendorff heart perfusion and ischemia-reperfusion injury model assessed as maximum derivative of change in systolic blood pressure over time at 1 uM dosed at start of reperfusion for 10 mins. It counts as functional.

In general, half-life refers to the time needed for the level to fall by half in the phase considered. Usually EC50 stands for the concentration needed to bring the measured effect to its halfway point. A word on the IC50: it is the concentration at which inhibition is half-maximal. Lower therefore signals greater potency. One may read the logD as the decadic logarithm of the distribution of all forms, ionised or not, between an organic phase and buffer at a given pH. For the compound `CCCC[C@H](NC(=O)[C@@H]1CCCN1C(=O)CNC(=O)[C@H](CCCCN)NC(=O)[C@H](Cc1c[nH]cn1)NC(=O)[C@H](CO)NC(=O)[C@H](CC(C)C)N(C)C(=O)[C@H](CCCNC(=N)N)NC(=O)[C@@H]1CCCN1C(=O)[C@H](CCCNC(=N)N)NC(=O)[C@H](CCC(N)=O)NC(=O)[C@H](CCCNC(=N)N)NC(=O)[C@H](CCCNC(=N)N)NC(=O)[C@H](Cc1ccccc1)NC(=O)[C@H](CCCCN)NC(=O)CCOCCOCCOCCOCCOCCOCCOCCNC(=O)OCc1ccccc1)C(=O)NC(C)(C)C(=O)N[C@@H](Cc1ccc(Br)cc1)C(=O)O` ({Cbz-PEG7}-KFRRQRPR[NMeL]SHKGP[Nle][Aib][Phe(4-Br)]-OH), the values for the half-life at 400 µM in [1] and in data set [2] were 18.2 h and 2.9 h, respectively. In addition, the EC50 in data set [3] is 6.17 nM. The same compound gave an IC50 in [4] of 1.91 nM. In addition, the Activity in data set [5] turned out to be 43 mmHg; in [9] it was 119 mmHg. Besides, the fraction unbound at 3 h, 100 µM in data set [6] was 0.15; in data set [7], 0.17. In data set [8], the logD was -1.54. In addition, the dP/dt max in data set [10] was 2600 mmHg/s.
Turning to `CCCC[C@H](NC(=O)[C@@H]1CCCN1C(=O)CNC(=O)[C@H](CCCCN)NC(=O)[C@H](Cc1c[nH]cn1)NC(=O)[C@H](CO)NC(=O)[C@H](CC(C)C)N(C)C(=O)[C@H](CCCNC(=N)N)NC(=O)[C@@H]1CCCN1C(=O)[C@H](CCCNC(=N)N)NC(=O)[C@H](CCC(N)=O)NC(=O)[C@H](CCCNC(=N)N)NC(=O)[C@H](CCCNC(=N)N)NC(=O)[C@H](Cc1ccccc1)NC(=O)[C@H](CCCCN)NC(=O)CCOCCOCCOCCOCCOCCOCCOCCNC(=O)OCC1c2ccccc2-c2ccccc21)C(=O)NC(C)(C)C(=O)N[C@@H](Cc1ccc(Br)cc1)C(=O)O` ({Fmoc-PEG7}-KFRRQRPR[NMeL]SHKGP[Nle][Aib][Phe(4-Br)]-OH), the values for the half-life at 400 µM in [1] and in [2] were 27 h and 2.8 h, respectively. Moreover, in [3], the concentration giving a half-maximal response (EC50) was 2.51 nM. In data set [4], this compound had a half-maximal inhibitory concentration (IC50) of 0.55 nM. In addition, the values for the Activity in data set [5] and in [9] were 47 mmHg and 90 mmHg, respectively. Moreover, the fraction unbound at 3 h, 100 µM in [6] is 0.06; in data set [7] it was 0.11. The compound also returned a logD in data set [8] of -1.45. In [10], the dP/dt max was found to be 2050 mmHg/s.
